Among the test systems are MCF7 breast; U251 CNS; SW-620 colon; MALME-3M melanoma; DU-145 prostate; SK-MEL-5 melanoma; NCI/ADR-RES ovarian; HS 578T breast; 786-0 renal; SNB-75 CNS.
Common to all, as to experiment: growth of human tumour cells (NCI), 48 h

“And” between values parts separate entries of the source, which are not always exact repeats. Equal values may be shown once.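 Compound exposure: 48 hours, 5 concentrations, 96-well plates. GI50 marks 50% less growth. At the TGI there is no net growth.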 Bounds are passed on as bounds.

`CCOc1ccc2nc3cc(N)ccc3c(N)c2c1`: the GI50 with MCF7 breast is 2.05 µM and 1.66 µM; with U251 CNS, 0.534 µM and 0.476 µM; in the test with SW-620 colon, 3.1 µM and 3.08 µM; with MALME-3M melanoma, 1.22 µM and 1.54 µM; with DU-145 prostate it was 5.65 µM and 6.17 µM; in the test with SK-MEL-5 melanoma, 3.31 µM and 3.03 µM. In addition, the GI50 was 9.69 µM and 24.6 µM in the test on NCI/ADR-RES ovarian; 1.29 µM and 1.03 µM in the test on HS 578T breast; 2.12 µM and 2.37 µM in the test on 786-0 renal; 2.86 µM and 14.1 µM in the test on SNB-75 CNS. In addition, the TGI in the test on MCF7 breast was 7.75 µM and 5.5 µM; in the test with U251 CNS it was 2.49 µM and 2.09 µM; in the test with SW-620 colon, 16.2 µM and 14.4 µM; in the test with MALME-3M melanoma, 3.23 µM and 3.95 µM; in the test with DU-145 prostate, 18.3 µM and 19 µM; in the test on SK-MEL-5 melanoma it was 13.3 µM and 12.8 µM. For the same molecule, the TGI in the test on NCI/ADR-RES ovarian is greater than 100 µM; in the test on HS 578T breast it was 9.46 µM and 4.83 µM; in the test on 786-0 renal, 10.8 µM and 13.1 µM; in the test on SNB-75 CNS it was 8.78 µM and 28.4 µM.

Turning to `CN1CCN(CCCOC(=O)c2c3c(n4ccccc24)C(=O)c2ncccc2C3=O)CC1`, the GI50 was less than 0.01 µM in the test with MCF7 breast; less than 0.01 µM in the test on U251 CNS; less than 0.01 µM in the test on SW-620 colon; 0.0265 µM in the test on MALME-3M melanoma; less than 0.01 µM in the test with DU-145 prostate; 0.0269 µM in the test on SK-MEL-5 melanoma. The GI50 was less than 0.0107 µM in the test on NCI/ADR-RES ovarian, less than 0.0268 µM with HS 578T breast, less than 0.01 µM in the test with 786-0 renal and less than 0.0142 µM in the test on SNB-75 CNS. The TGI with MCF7 breast came out at 0.0178 µM; with U251 CNS, 0.0768 µM; in the test on SW-620 colon, 0.0385 µM; in the test with MALME-3M melanoma, 1.14 µM; with DU-145 prostate, 1.3 µM; in the test on SK-MEL-5 melanoma, 0.592 µM. Further, the TGI turned out to be 12.9 µM in the test with NCI/ADR-RES ovarian, 1.15 µM in the test on HS 578T breast, 0.0407 µM in the test on 786-0 renal and 0.105 µM in the test with SNB-75 CNS.

On to `CC(C)OC(=O)Nc1c([N+](=O)[O-])cc(C(F)(F)F)cc1[N+](=O)[O-]`, for which the TGI in the test on MCF7 breast, in the test with U251 CNS, in the test on SW-620 colon, in the test with MALME-3M melanoma, in the test with DU-145 prostate and in the test on SK-MEL-5 melanoma was greater than 100 µM each time. In addition, the TGI with NCI/ADR-RES ovarian is greater than 100 µM; in the test with HS 578T breast, greater than 100 µM; in the test on 786-0 renal, greater than 100 µM; in the test with SNB-75 CNS it was 40 µM.

As to `C=C(C)[C@@H]1CC[C@]2(C(=O)OC)CC[C@]3(C)[C@H](CC[C@@H]4[C@@](C)(CCc5nn[nH]n5)[C@H](C(=C)C)CC[C@]43C)[C@@H]12`, the GI50 with MCF7 breast was 17 µM; with U251 CNS it was 15.4 µM; in the test with SW-620 colon, 19.3 µM; in the test on MALME-3M melanoma, 16.3 µM; in the test with DU-145 prostate, 16 µM; in the test with SK-MEL-5 melanoma it was 11.4 µM. The GI50 was 20.8 µM in the test on NCI/ADR-RES ovarian, 19.8 µM with HS 578T breast, 53.4 µM in the test with 786-0 renal and 15.9 µM in the test with SNB-75 CNS. In addition, the TGI in the test on MCF7 breast was 70.5 µM; in the test on U251 CNS, 32.4 µM; in the test on SW-620 colon, 46 µM; in the test on MALME-3M melanoma, 31.7 µM; in the test on DU-145 prostate it was 32.4 µM; in the test on SK-MEL-5 melanoma, 24.4 µM. For the same molecule, the TGI in the test on NCI/ADR-RES ovarian was 73.2 µM; with HS 578T breast it was 53.8 µM; in the test with 786-0 renal, greater than 100 µM; in the test with SNB-75 CNS it was 34.1 µM.

As for `OC(c1ccccc1)c1c(-c2ccccc2)[nH]c(-c2ccccc2)c1C(O)c1ccccc1` (stereo not drawn), the TGI in the test with MCF7 breast was 19.1 µM; in the test on U251 CNS it was 18.5 µM; in the test with SW-620 colon, 29.1 µM; in the test on MALME-3M melanoma, 7.17 µM; in the test with DU-145 prostate, 20 µM; with SK-MEL-5 melanoma, 5.27 µM. The TGI in the test with NCI/ADR-RES ovarian worked out at 8.02 µM; with HS 578T breast, 18.9 µM; in the test with 786-0 renal it was 16.1 µM.

With `O=c1cc(-c2cccc(Cl)c2)[nH]c2cc3c(cc12)OCO3`, the TGI in the test on MCF7 breast is greater than 100 µM; in the test with U251 CNS, 10.3 µM; in the test with SW-620 colon it was greater than 100 µM; in the test with DU-145 prostate, 0.863 µM; with HS 578T breast, 1.74 µM; with 786-0 renal, 23.4 µM and 23.8 µM. The molecule also displayed a TGI in the test with SNB-75 CNS of 0.712 µM. In addition, the GI50 in the test on MALME-3M melanoma is 0.31 µM; in the test on SK-MEL-5 melanoma, 0.164 µM; with 786-0 renal, 0.544 µM.

As to `COc1cccc2c1C(=O)c1c(O)c3c(c(O)c1C2=O)C[C@@](O)(/C(C)=N/NC(=O)c1cccc([N+](=O)[O-])c1)C[C@@H]3OC1CC(N)C(O)C(C)O1` (stereo partly drawn), the GI50 in the test with MCF7 breast was 0.0613 µM; with U251 CNS it was 0.22 µM; with SW-620 colon, 0.156 µM; in the test with DU-145 prostate it was 0.272 µM; in the test with SK-MEL-5 melanoma it was 0.113 µM; with NCI/ADR-RES ovarian, 5.26 µM. In addition, the GI50 is 0.561 µM in the test with HS 578T breast, 0.306 µM in the test with 786-0 renal and 0.22 µM with SNB-75 CNS. Moreover, the TGI turned out to be 18.5 µM in the test with MCF7 breast; 14 µM with U251 CNS; 9.4 µM in the test with SW-620 colon; 1.81 µM in the test with DU-145 prostate; 0.361 µM in the test with SK-MEL-5 melanoma; 35.8 µM with NCI/ADR-RES ovarian. The TGI came out at 5.5 µM in the test with HS 578T breast, 5.68 µM with 786-0 renal and 1.5 µM with SNB-75 CNS.

Regarding `C/C(=C1\C(=O)Nc2ccccc21)c1cccc(/C(C)=C2/C(=O)Nc3ccccc32)n1`, the GI50 with MCF7 breast was 3.74 µM; with U251 CNS, 7.6 µM; with SW-620 colon, 7.69 µM; in the test on DU-145 prostate it was 2.93 µM; in the test with SK-MEL-5 melanoma, 5.67 µM; with NCI/ADR-RES ovarian, 4.93 µM. Further, the GI50 was 4.1 µM in the test on HS 578T breast, 17.3 µM in the test with 786-0 renal and 40.2 µM with SNB-75 CNS. Moreover, the TGI was greater than 100 µM with MCF7 breast; greater than 100 µM with U251 CNS; greater than 100 µM in the test with SW-620 colon; greater than 100 µM in the test on DU-145 prostate; 25.4 µM with SK-MEL-5 melanoma; 44.8 µM with NCI/ADR-RES ovarian. For the same molecule, the results for the TGI in the test on HS 578T breast, in the test with 786-0 renal and with SNB-75 CNS were greater than 100 µM, 89.6 µM and greater than 100 µM, respectively.

Consider `O=C(O)CN(CCN(CC(=O)O)CC(=O)O)CCN(CC(=O)O)CC(=O)O`, for which the GI50 is 3.75 µM with MCF7 breast; 4.14 µM with U251 CNS; 3.85 µM in the test with SW-620 colon; 2.94 µM in the test on DU-145 prostate; 2.92 µM with SK-MEL-5 melanoma; 3.1 µM in the test with NCI/ADR-RES ovarian. Further, the results for the GI50 in the test on HS 578T breast, in the test on 786-0 renal and in the test on SNB-75 CNS were 2.09 µM, 2.54 µM and 1.99 µM, respectively. Moreover, the TGI in the test with MCF7 breast worked out at 22.1 µM; in the test with U251 CNS, 21.2 µM; in the test on SW-620 colon, 19 µM; in the test on DU-145 prostate it was 8.82 µM; in the test on SK-MEL-5 melanoma, 9.07 µM; in the test with NCI/ADR-RES ovarian, 13.7 µM. Besides, the figures for the TGI in the test on HS 578T breast, in the test on 786-0 renal and in the test on SNB-75 CNS were 56.7 µM, 6.72 µM and 7.86 µM, respectively.

For the origin of these results see PubChem BioAssay (NCI).
